Legend:
Type in all cases: in vivo
Bemisia tabaci = Bemisia tabaci (cotton white fly) feeding/contact activity, cotton leaf discs; details: foliar, 144 h, application rate 200 ppm, adult white flies, 6 days after incubation
Method: Example B1: Bemisia tabaci (Cotton White Fly): Feeding/Contact Activity
Cotton leaf discs were placed on agar in 24-well microtiter plates and sprayed with aqueous test solutions prepared from 10′000 ppm DMSO stock solutions. After drying the leaf discs were infested with adult white flies. The samples were checked for mortality 6 days after incubation.

Diabrotica Balteata = assay: Diabrotica balteata (corn root worm), maize sprouts, L2 larvae; details: 96 h, application rate 200 ppm, 4 days after infestation, read-out: effect in at least one of the two categories (mortality or growth inhibition)
Method: Example B2: Diabrotica Balteata (Corn Root Worm)
Maize sprouts placed onto an agar layer in 24-well microtiter plates were treated with aqueous test solutions prepared from 10′000 ppm DMSO stock solutions by spraying. After drying, the plates were infested with L2 larvae (6 to 10 per well). The samples were assessed for mortality and growth inhibition in comparison to untreated samples 4 days after infestation.

Euschistus heros = Euschistus heros (neotropical brown stink bug), soybean leaves, N2 nymphs; details: 120 h, application rate 200 ppm, 5 days after infestation, read-out: effect in at least one of the two categories (mortality or growth inhibition)
Method: Example B3: Euschistus heros (Neotropical Brown Stink Bug)
Soybean leaves on agar in 24-well microtiter plates were sprayed with aqueous test solutions prepared from 10′000 ppm DMSO stock solutions. After drying the leaves were infested with N2 nymphs. The samples were assessed for mortality and growth inhibition in comparison to untreated samples 5 days after infestation.

[1] = test system: Frankliniella occidentalis; assay: Frankliniella occidentalis (western flower thrips) feeding/contact activity, sunflower leaf discs; details: foliar, 168 h, application rate 200 ppm, population of mixed ages, 7 days after infestation
Method: Example B4: Frankliniella occidentalis (Western Flower Thrips): Feeding/Contact Activity
(§1) Sunflower leaf discs were placed on agar in 24-well microtiter plates and sprayed with aqueous test solutions prepared from 10′000 DMSO stock solutions. After drying the leaf discs were infested with a Frankliniella population of mixed ages. The samples were assessed for mortality 7 days after infestation.

Myzus persicae [2] = assay: Myzus persicae (green peach aphid) feeding/contact activity, sunflower leaf discs; details: foliar, 144 h, application rate 200 ppm, 6 days after infestation
Method: Example B5: Myzus persicae (Green Peach Aphid): Feeding/Contact Activity
Sunflower leaf discs were placed onto agar in a 24-well microtiter plate and sprayed with aqueous test solutions prepared from 10′000 ppm DMSO stock solutions. After drying, the leaf discs were infested with an aphid population of mixed ages. The samples were assessed for mortality 6 days after infestation.

Myzus persicae [3] = assay: Myzus persicae (green peach aphid) systemic activity, pea seedling roots; details: 144 h, test rate 24 ppm, 6 days after placing seedlings into test solutions
Plutella xylostella = Plutella xylostella (diamond back moth), artificial diet, L2 larvae; details: 120 h, application rate 200 ppm, 5 days after infestation, read-out: effect in at least one of the two categories (mortality or growth inhibition)
Method: Example B7: Plutella xylostella (Diamond Back Moth)
24-well microtiter plates with artificial diet were treated with aqueous test solutions prepared from 10′000 ppm DMSO stock solutions by pipetting. After drying, the plates were infested with L2 larvae (10 to 15 per well). The samples were assessed for mortality and growth inhibition in comparison to untreated samples 5 days after infestation.

Spodoptera littoralis [4] = assay: Spodoptera littoralis (Egyptian cotton leaf worm), cotton leaf discs, L1 larvae; details: foliar, 72 h, application rate 200 ppm, L1 larvae on cotton leaf discs, 3 days after infestation
Method: Example B8: Spodoptera littoralis (Egyptian Cotton Leaf Worm)
Cotton leaf discs were placed onto agar in 24-well microtiter plates and sprayed with aqueous test solutions prepared from 10′000 ppm DMSO stock solutions. After drying the leaf discs were infested with five L1 larvae. The samples were assessed for mortality, anti-feeding effect, and growth inhibition in comparison to untreated samples 3 days after infestation. Control of Spodoptera littoralis by a test sample is given when at least one of the categories mortality, anti-feedant effect, and growth inhibition is higher than the untreated sample.

Spodoptera littoralis [5] = assay: Spodoptera littoralis (Egyptian cotton leaf worm), uptake by lettuce roots from agar, eggs; details: 144 h, test rate 12.5 ppm, lettuce root uptake, 6 days after infestation, read-out: effect in at least one of the three categories (mortality, anti-feeding, or growth inhibition)
Source text: Example B9: Spodoptera littoralis (Egyptian Cotton Leaf Worm)
Test compounds were applied by pipette from 10′000 ppm DMSO stock solutions into 24-well plates and mixed with agar. Lettuce seeds were placed onto the agar and the multi well plate was closed by another plate which contained also agar. After 7 days the compound was absorbed by the roots and the lettuce grew into the lid plate. The lettuce leaves were then cut off into the lid plate. Spodoptera eggs were pipetted through a plastic stencil onto a humid gel blotting paper and the lid plate was closed with it. The samples were assessed for mortality, anti-feedant effect and growth inhibition in comparison to untreated samples 6 days after infestation.

Thrips tabaci = Thrips tabaci (onion thrips) feeding/contact activity, sunflower leaf discs; details: foliar, 144 h, application rate 200 ppm, population of mixed ages, 6 days after infestation
Method: Example B11: Thrips tabaci (Onion Thrips) Feeding/Contact Activity
as §1, with “10′000 ppm” for “10′000”, “thrips” for “Frankliniella”, “6” for “7”

Aedes aegypti = Aedes aegypti (yellow fever mosquito), dry deposit in 12 well plates, adult females; details: application rate 200 ppm in ethanol, after 48 h and/or 24 h
Method: Example B12: Aedes aegypti (Yellow Fever Mosquito)
(§2) Test solutions, at an application rate of 200 ppm in ethanol, were applied to 12 well tissue culture plates. Once the deposits were dry, five, two to five day old adult female Aedes aegypti were added to each well, and sustained with a 10% sucrose solution in a cotton wool plug. Assessment of knockdown was made one hour after introduction, and mortality was assessed at 24 and 48 hours after introduction.

Anopheles stephensi = Anopheles stephensi (Indian malaria mosquito), dry deposit in 12 well plates, adult females; details: application rate 200 ppm in ethanol, after 48 h and/or 24 h
Method: Example B13: Anopheles stephensi (Indian Malaria Mosquito)
as §2, with “Anopheles stephensi” for “Aedes aegypti”

Tetranychus urticae = Tetranychus urticae (two-spotted spider mite) feeding/contact activity, bean leaf discs; details: foliar, 192 h, application rate 200 ppm, mixed population (mobile stages), 8 days after infestation
Method: Example B10: Tetranychus urticae (Two-Spotted Spider Mite): Feeding/Contact Activity
Bean leaf discs on agar in 24-well microtiter plates were sprayed with aqueous test solutions prepared from 10′000 ppm DMSO stock solutions. After drying the leaf discs were infested with a mite population of mixed ages. The samples were assessed for mortality on mixed population (mobile stages) 8 days after infestation.

CCS(=O)(=O)c1cc(C(F)(F)F)cnc1-c1nc2cc([S+]([O-])C(F)(F)F)ncc2n1C (stereo not shown) [Compound P9, 2-[3-ethylsulfonyl-5-(trifluoromethyl)-2-pyridyl]-3-methyl-6-(trifluoromethylsulfinyl) imidazo[4,5-c]pyridine]
≥ 80%: mortality at 200 ppm (Bemisia tabaci) | percent effect (mortality or growth inhibition) at 200 ppm (Diabrotica Balteata) | percent effect (mortality or growth inhibition) at 200 ppm (Euschistus heros) | mortality at 200 ppm [1] | mortality at 200 ppm (Myzus persicae [2]) | mortality at 24 ppm (Myzus persicae [3]) | percent effect (mortality or growth inhibition) at 200 ppm (Plutella xylostella) | percent control (mortality, anti-feedant effect or growth inhibition) at 200 ppm (Spodoptera littoralis [4]) | percent effect (mortality, anti-feeding or growth inhibition) at 12.5 ppm (Spodoptera littoralis [5]) | mortality at 200 ppm (Thrips tabaci) | pest or weed control at 200 ppm (Aedes aegypti) | pest or weed control at 200 ppm (Anopheles stephensi)

CCS(=O)(=O)c1cc(C(F)(F)F)cnc1-c1nc2cc(S(=O)(=O)C(F)(F)F)ncc2n1C [Compound P8, 2-[3-ethylsulfonyl-5-(trifluoromethyl)-2-pyridyl]-3-methyl-6-(trifluoromethylsulfonyl) imidazo[4,5-c]pyridine]
≥ 80%: mortality at 200 ppm (Bemisia tabaci) | percent effect (mortality or growth inhibition) at 200 ppm (Diabrotica Balteata) | percent effect (mortality or growth inhibition) at 200 ppm (Euschistus heros) | mortality at 200 ppm [1] | mortality at 200 ppm (Myzus persicae [2]) | mortality at 24 ppm (Myzus persicae [3]) | percent effect (mortality or growth inhibition) at 200 ppm (Plutella xylostella) | percent control (mortality, anti-feedant effect or growth inhibition) at 200 ppm (Spodoptera littoralis [4]) | percent effect (mortality, anti-feeding or growth inhibition) at 12.5 ppm (Spodoptera littoralis [5]) | mortality at 200 ppm (Tetranychus urticae) | mortality at 200 ppm (Thrips tabaci) | pest or weed control at 200 ppm (Aedes aegypti) | pest or weed control at 200 ppm (Anopheles stephensi)
